# Source: patent US5021421A, “2-(1-Piperazinyl)-4-phenylcycloalkanopyridine derivatives, processes for the production thereof, and pharmaceutical composition containing the same” (Dainippon Pharmaceutical Co., Ltd., priority 1989, dated 1991)
# Like-named read-outs stand apart in the source and are kept apart here.
# How the values were obtained:
# [1] = molecular target: T1, dopamine (D2) receptor (Rattus norvegicus, UniProt P61169); assay: In vitro binding to dopamine (D2) receptor, [3H] spiperone; design: species or system rats
# T1 construct: Crude synaptosome fractions were prepared from some brain regions in rats for receptor sources; from tissue
# Procedure: (§1) Dopamine (D2), serotonin (S1, S2) and adrenaline (α1) receptor binding assays were carried out according to the methods of I. Creese et al. [Eur. J. Pharmacol., 46, 377 (1977), S. J. Peroutka et al. [Mol. Pharmacol. 16, 687 (1979)], J. E. Leysen et al. [Mol. Pharmacol., 21, 301 (1982)] and D. C. U'Prichard et al. [Mol. Pharmacol., 13, 454 (1977)], respectively.
# (§2) Crude synaptosome fractions were prepared from some brain regions in rats for receptor sources. Radioactive ligands used were [^3 H] spiperone (D2), [^3 H] serotonin (S1), [^3 H] ketanserin (S2) and [^3 H] WB-4101 (α1). The binding assay was performed by incubating aliquots of synaptosome fraction in buffer solution (final volume: 1 ml) containing a [^3 H] labelled ligand and a test compound. The assay was terminated by rapid filtration through Whatman GF/B glass fiber filters attached to a cell-harvester (Brandel) and radioactivity on the filters was counted in a Packard Triscarb scintillation counter. Specific binding was calculated as a difference between amounts of radioactivity in the presence and absence of an unlabelled ligand [spiperone (D2), serotonin (S1), methysergide (S2) and prazosin (α1)]. The IC50 value of the test compounds (concentration causing 50% inhibition of [^3 H] ligand specific binding) was determined by probit analysis.
# [2] = molecular target: T2, serotonin (S2) receptor (Rattus norvegicus, UniProt P14842); assay: In vitro binding to serotonin (S2) receptor, [3H] ketanserin; design: species or system rats; conditions: [3H] ketanserin, rat brain crude synaptosome fraction
# T2 construct: Crude synaptosome fractions were prepared from some brain regions in rats for receptor sources; from tissue
# Procedure: as §1, §2
# [3] = molecular target: serotonin (S1) receptor; assay: In vitro binding to serotonin (S1) receptor, [3H] serotonin; design: species or system rats; conditions: rat brain crude synaptosome fraction
# Procedure: as §1, §2
# [4] = molecular target: adrenaline (α1) receptor; assay: In vitro binding to adrenaline (α1) receptor, [3H] WB-4101; design: species or system rats; conditions: [3H] WB-4101, rat brain crude synaptosome fraction
# Procedure: as §1, §2
# [5] = tested on: brain monoamine metabolites; assay: Increasing effect on concentration of brain monoamine metabolites; assay type: in vivo, mice (Std-ddy strain); conditions: Mus musculus, 2 h, non-dosed=100
# Procedure: A group of 5 male mice (Std-ddy strain, 25-30 g) was used for examining effect of the test compounds on concentration of brain monoamine metabolites.
# Mice were killed by decapitation 2 hours after treatment with the test compounds. Brains were quickly taken out, homogenized in 1N formic acid-acetone solution, and centrifuged in a refrigerated ultracentrifuge. The supernatant was evaporated by blowing with N2 gas. Then, the residue was again resolved in 0.01 N acetic acid, and served for determining concentration of dopamine metabolites, 3,4-dihydroxyphenylacetic acid (DOPAC) and homovanillic acid (HVA), a norepinephrine metabolite, 3-methyl-4-hydroxyphenylethylene glycol (MOPEG), and a serotonin metabolite, 5-hydroxyindole-3-acetic acid (5-HIAA) concentrations by HPLC with electrochemical detection. The effect of the test compounds on concentration of each monoamine metabolite is shown as % of control (level of non-dosed animals=100) in Table 4.
# [6] = tested on: apomorphine-induced vomiting; assay: Antagonistic effect on apomorphine-induced vomiting; assay type: in vivo, dogs (Beagle); conditions: Canis lupus familiaris, sc, read-out: Inhibitory ratio (apomorphine-induced vomiting)
# Procedure: A group of 3-4 dogs (Beagle, 8-15 kg) was used for examining effects on the test compounds on apomorphine-induced vomiting, a known test for evaluating neuroleptic drugs.
# Each dog was given a subcutaneous injection of apomorphine hydrochloride (0.3 mg/kg) two hours after the treatment of the test compounds. Then, the frequency of oral vomiting was counted for one hour. The mean counts of the compound-treated group were compared with those of the corresponding control (non-dosed) group, and the percent inhibition was calculated.
# [7] = tested on: cycloheximide-induced amnesia of passive avoidance response; assay: Improving effect on cycloheximide-induced amnesia of passive avoidance response; assay type: in vivo, mice (Std-ddY strain); conditions: cycloheximide 60 mg/kg s.c., retention at 24 h
# From the text: Anti-amnesic effect of the test compounds was examined using mice given cycloheximide, which is a known amnesia-inducing agent.
# A group of 15-20 male mice (Std-ddY strain, 27-33 g) was subjected to training and retention trials for a passive avoidance task in a step-down apparatus (30×30×50 cm) with a grid floor and a wooden platform (4×4×4 cm) in a center of the floor. In the training trial, each mouse was first placed on the platform. When the mouse stepped down on the grid floor, an electric shock (1 Hz, 0.5 sec, 60 VDC) was delivered to the feet for 15 seconds. Immediately after the training trial, cycloheximide (60 mg/kg, s.c.) and a test compound (i.p.) were administered. The retention trial was carried out 24 hours thereafter, the time from placing again each mouse placed on the platform until stepping down on the grid floor (step-down latency) was measured. The step-down latency in the retention trial was markedly shortened by treatment of cycloheximide (amnesia). The effect of test compounds was assessed by % improvement (complete improvement to the latency level of non-dosed animals=100%).
# [8] = tested on: scopolamine-induced deficit of spontaneous alternation; assay: Improving effect on scopolamine-induced deficit of spontaneous alternation behavior (T-maze); assay type: in vivo, mice (Std-ddY strain); conditions: scopolamine hydrobromide 1 mg/kg i.p.
# From the text: A group of 15-25 male mice (Std-ddY strain, 22-28 g) was used for evaluating effect of the test compounds on scopolamine-induced deficit of spontaneous alternation in a T-maze, which is a known animal model of memory impairment due to hypofunction of the cholinergic nervous system. The T-maze used consists of a stem and two arms which are 25 cm long, 5 cm wide and 10 cm high. The first 10 cm of the stem and last 10 cm of each arm are divided by sliding doors into start and goal boxes.
# A test compound and scopolamine hydrobromide (1 mg/kg) were intraperitoneally administered to each mouse, and after 30 minutes a test of spontaneous alternation task in the T-maze was continuously repeated for 8 trials. Commonly, naive mice alternate each (right and left) goal box in turn, but scopolamine-treated animals tend to enter the same goal box repeatedly. The effect of the test compounds was expressed as % improvement (complete improvement to the alternation level of non-dosed mice=100%).
# [9] = tested on: mice; assay: Acute toxicity; assay type: in vivo, mice (Std-ddy strain); conditions: dose 500 mg/kg oral, 7 days observation
# From the text: A group of 5 male mice (Std-ddy strain, 25-30 g) was used. The test compound was orally administered to the test animal in the form of a 0.5% tragacanth solution or suspension, and for 7 days after the administration of the test compound, the lethality of animals was observed.
# [10] = [3H] spiperone, rat brain crude synaptosome fraction, read-out: IC50 D2
# [11] = read-out: 5-HIAA concentration, % of control
# [12] = read-out: DOPAC concentration, % of control
# [13] = read-out: HVA concentration, % of control
# [14] = read-out: MOPEG concentration, % of control
# [15] = apomorphine 0.3 mg/kg s.c. 2 h after compound
# T1 sequence (P61169 whole entry): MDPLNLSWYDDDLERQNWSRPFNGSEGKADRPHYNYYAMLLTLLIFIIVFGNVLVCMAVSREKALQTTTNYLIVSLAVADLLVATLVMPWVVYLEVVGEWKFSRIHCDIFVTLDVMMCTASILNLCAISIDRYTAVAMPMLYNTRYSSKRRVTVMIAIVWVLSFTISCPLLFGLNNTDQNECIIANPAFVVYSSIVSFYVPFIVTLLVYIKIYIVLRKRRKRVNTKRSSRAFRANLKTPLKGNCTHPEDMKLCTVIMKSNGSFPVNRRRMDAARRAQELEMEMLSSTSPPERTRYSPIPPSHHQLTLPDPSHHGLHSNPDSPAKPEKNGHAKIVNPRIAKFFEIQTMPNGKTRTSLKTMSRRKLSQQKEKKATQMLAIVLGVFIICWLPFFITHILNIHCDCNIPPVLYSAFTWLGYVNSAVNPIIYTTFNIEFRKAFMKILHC
# T2 sequence (P14842 whole entry): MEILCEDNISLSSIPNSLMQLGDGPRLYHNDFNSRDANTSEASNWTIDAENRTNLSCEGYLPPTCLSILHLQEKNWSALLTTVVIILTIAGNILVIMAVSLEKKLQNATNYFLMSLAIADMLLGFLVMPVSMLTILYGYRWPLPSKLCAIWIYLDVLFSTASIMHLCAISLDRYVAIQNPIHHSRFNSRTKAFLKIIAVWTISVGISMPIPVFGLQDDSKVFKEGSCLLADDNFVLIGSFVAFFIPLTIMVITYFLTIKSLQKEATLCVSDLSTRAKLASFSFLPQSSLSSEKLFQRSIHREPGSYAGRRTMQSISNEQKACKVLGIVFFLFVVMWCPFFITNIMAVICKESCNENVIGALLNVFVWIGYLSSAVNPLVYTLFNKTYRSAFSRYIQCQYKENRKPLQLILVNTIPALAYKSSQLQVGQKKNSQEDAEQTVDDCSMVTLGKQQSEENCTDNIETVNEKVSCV
Compound,"IC50 [1, 10]",IC50 [2],IC50 [3],IC50 [4],"response vs control in vivo at 10 mg/kg [5, 11]","response vs control in vivo at 10 mg/kg [5, 12]","response vs control in vivo at 10 mg/kg [5, 13]","response vs control in vivo at 10 mg/kg [5, 14]",Improvement (step-down latency) ([7]; dose 0.5 mg/kg i.p.),Improvement (step-down latency) ([7]; dose 2.0 mg/kg i.p.),Improvement (spontaneous alternation) ([8]; dose 10.0 mg/kg i.p.),also measured
"CCN1CCN(c2cc(-c3ccccc3)c3c(n2)CCCCC3)CC1 [Example 23, 2-(4-Ethyl-1-piperazinyl)-4-phenyl-6,7,8,9-tetrahydro-5H-cyclohepta[b]pyridine]",96 nM,7.7 nM,2900 nM,320 nM,145%,344%,320%,115%,–,–,–,–
CCN1CCN(c2cc(-c3ccc(F)cc3)c3c(n2)CCCC3)CC1 [Example 15],58 nM,19 nM,1700 nM,35 nM,108%,277%,235%,118%,–,–,–,"inhibition in vivo at 3 mg/kg ([6]; dose 3.0 mg/kg, apomorphine 0.3 mg/kg s.c. 2 h after compound): 100%"
"c1ccc(-c2cc(N3CCNCC3)nc3c2CCC3)cc1 [Example 87, 2-(1-Piperazinyl)-4-phenyl-6,7-dihydro-5H-1-pyrindine]",270 nM,28 nM,820 nM,94 nM,136%,180%,194%,117%,48%,77%,–,Improvement (spontaneous alternation) ([8]; dose 0.5 mg/kg i.p.): 48.0%; Improvement (spontaneous alternation) ([8]; dose 2.0 mg/kg i.p.): 60.0%
"c1ccc(-c2cc(N3CCNCC3)nc3c2CCCC3)cc1 [Example 86, 2-(1-piperazinyl)-4-phenyl-5,6,7,8-tetrahydroquinoline]",730 nM,81 nM,1400 nM,530 nM,–,–,–,–,–,–,47.6%,–
c1ccc(-c2cc(N3CCNCC3)nc3c2CCCCC3)cc1 [Example 96],660 nM,62 nM,4900 nM,1100 nM,127%,201%,194%,115%,81%,64%,–,–
"Fc1ccc(-c2cc(N3CCNCC3)nc3c2CCCC3)cc1 [Example 92, 2-(1-Piperazinyl)-4-(4-fluorophenyl)-5,6,7,8-tetrahydroquinoline]",300 nM,27 nM,1900 nM,380 nM,139%,208%,192%,121%,–,44%,–,Improvement (step-down latency) ([7]; dose 10.0 mg/kg i.p.): 78%
"Fc1ccc(-c2cc(N3CCNCC3)nc3c2CCCCC3)cc1 [Example 97, 2-(1-Piperazinyl)-4-(4-fluorophenyl)-6,7,8,9-tetrahydro-5H-cyclohepta[b]pyridine]",260 nM,5.1 nM,4100 nM,890 nM,128%,232%,176%,125%,38%,36%,32.0%,–
"Fc1ccc(-c2cc(N3CCNCC3)nc3c2CCC3)cc1 [Example 88, 2-(1-Piperazinyl)-4-(4-fluorophenyl)-6,7-dihydro-5H-1-pyrindine]",–,9.1 nM,670 nM,65 nM,120%,329%,209%,136%,–,60%,37.0%,IC50 [1]: 70 nM; inhibition in vivo at 3 mg/kg ([6]; 2 h): 94%
"CCN1CCN(c2cc(-c3ccc(F)cc3)c3c(n2)CCCCCC3)CC1 [Example 1a, 2-(4-ethyl-1-piperazinyl)-4-(4-fluorophenyl)-5,6,7,8,9,10-hexahydrocycloocta[b]pyridine]",24 nM,9.9 nM,–,83 nM,–,–,–,–,–,–,–,"inhibition in vivo at 0.2 mg/kg [6, 15]: 100%; Number of dead animals / Number of test animals [9]: 0/5"
"CCN1CCN(c2cc(-c3ccc(F)cc3F)c3c(n2)CCCCCC3)CC1 [Example 2b, 2-(4-ethyl-1-piperazinyl)-4-(2,4-difluorophenyl)-5,6,7,8,9,10-hexahydrocycloocta[b] pyridine]",–,–,–,–,–,–,–,–,–,–,–,"inhibition in vivo at 0.2 mg/kg [6, 15]: 100%; Number of dead animals / Number of test animals [9]: 0/5; response vs control in vivo at 2 mg/kg [5, 12]: 364%; response vs control in vivo at 2 mg/kg [5, 13]: 271%"
